In publication PMC12430429, “Synthesis, Structure, DNA/BSA Binding, DNA Cleaving, Cytotoxic and SOD Mimetic Activities of Copper(II) Complexes Derived from Methoxybenzylamine Schiff Base Ligands” (Molecules, 2025):

Key:
EB–DNA adduct (ct-DNA) = assay: EB–DNA displacement method (fluorescence quenching); type: binding, calf; details: for Stern–Volmer quenching constant Ksv / quenching rate constant kq: EB–DNA adduct; for quenching rate constant kq: τ0 = 23 × 10^−9 s; for Δ I/I0, EB–DNA fluorescence quenching: maximum quenching of EB–DNA emission
Excerpt: Competitive-binding experiments using the ethidium bromide (EB) displacement method from DNA may provide another confirmation of the binding affinity of the complexes. EB is a well-known DNA intercalator able to form an EB–DNA adduct by its insertion between adjacent DNA base pairs. The EB–DNA adduct is distinguished by an intense fluorescence emission band at 615 nm after excitation at 540 nm. Introducing a compound with DNA affinity leads to emission intensity decrease of the EB–DNA adduct as a result of the competition between the measured compound and EB for the binding sites within DNA.
Competitive-binding experiments to determine the displacement of the intercalator ethidium bromide (EB) from the EB–DNA adduct were conducted by fluorescence spectroscopy. To prepare the EB–DNA adduct, 20 μM EB and 54 μM ct-DNA were added to citrate buffer (sodium citrate at 15 mM and sodium chloride at 150 mM at pH = 7.0). The addition of increasing concentrations of complexes 4a–c (c = 1 mM) to a solution of the EB–DNA complex corresponded to the intercalating effect of the complexes. The concentration of the added complexes ranged from 0 to 0.2 mM. Fluorescence emission spectra were recorded in the range of 550–800 nm with an excitation wavelength of 515 nm. […] Quenching of the EB–DNA emission band by the compounds 4a–c was calculated using the Stern–Volmer equation (Equations (2)–(4)).
The extent of the inner-filter effect can be roughly estimated with the following equation:(2) Icorr=Imeas×10^ε(λexc)cd/2×10^ε(λem)cd/2 where Icorr is the corrected intensity, Imeas is the measured intensity, c is the quencher concentration, d is the width of the cuvette (1 cm) and ε(λexc) and ε(λem) are the […] of the quencher at the excitation and the emission wavelength calculated from the UV–Vis spectra of the complexes.
The quenching of the EB–DNA emission band by compounds was calculated via the Stern–Volmer equation:(3) Io/I=1+kqτ0Q=1+KSVQ where Io = the initial fluorescence intensity of the EB–DNA adduct, and I is the fluorescence intensity of the EB–DNA adduct after the addition of the quencher (studied complexes), kq = the quenching rate constant, KSV = the Stern–Volmer constant, τo = the average fluorescence lifetime of the EB–DNA adduct (23 × 10^−9 s), [Q] = the quencher concentration, respectively, KSV (in M^−1) can be obtained by the slope of the Stern–Volmer plot and kq (in M^−1 s^−1) can be calculated from Equation (4):(4) KSV=kqτ0

[1] = target: bovine serum albumin (BSA) (Bos taurus, UniProt P02769); assay: Bovine serum albumin binding (tryptophan fluorescence quenching); details: for dynamic quenching constant Ksv / quenching constant kq: BSA 3 μM, citrate buffer pH 7.0; for association binding constant KBSA / n (number of binding sites for albumin): Scatchard equation
Experimental: The fluorescence emission spectra of BSA show intense fluorescence emission at 336 nm upon excitation at 280 nm. This is due to the presence of two tryptophan residues (Trp134 and Trp212). Fluorescence quenching data were analyzed to obtain various binding parameters for the interaction of complexes 4a–c with BSA.
The interaction of complexes with serum albumin was characterized by the Stern–Volmer constant Ksv and the quenching constant kq, which was calculated using the Stern–Volmer equation (Figure S4-2) together with the associate binding constant KBSA and the number of binding sites per albumin n determined from the Scatchard equations (Equation (6), Figure S4-3); the values are summarized in Table 6.
The BSA binding of complexes 4a–c was studied by tryptophan fluorescence emission quenching experiments using BSA (3 μM) in citrate buffer solution (containing 15 mM trisodium citrate and 150 mM sodium chloride at pH 7.0). The emission intensity quenching of BSA tryptophan residues at 336 nm was measured by increasing the concentration of the quencher complexes 4a–c. The concentration of the added complexes ranged from 0 to 0.2 mM. The fluorescence emission spectra were recorded in the 300–420 nm range and with an excitation wavelength of 280 nm. The values of the Stern–Volmer constant KSV (in M^−1), the BSA binding constant K (in M^−1) for the compound–BSA interaction and the BSA quenching constant kq (in M^−1 s^−1) have been calculated from the Stern–Volmer (Equations (2)–(4)). and Scatchard equations (Equation (6)):(6) ΔI/Io/[Q]=nK−KΔI/Io
The BSA binding constant K (in M^−1) can be calculated from the slope of the Scatchard plots, and the number of binding sites per albumin (n) is given by the ratio of the y intercept to the slope.

Sequence of bovine serum albumin (BSA) (P02769 25-607): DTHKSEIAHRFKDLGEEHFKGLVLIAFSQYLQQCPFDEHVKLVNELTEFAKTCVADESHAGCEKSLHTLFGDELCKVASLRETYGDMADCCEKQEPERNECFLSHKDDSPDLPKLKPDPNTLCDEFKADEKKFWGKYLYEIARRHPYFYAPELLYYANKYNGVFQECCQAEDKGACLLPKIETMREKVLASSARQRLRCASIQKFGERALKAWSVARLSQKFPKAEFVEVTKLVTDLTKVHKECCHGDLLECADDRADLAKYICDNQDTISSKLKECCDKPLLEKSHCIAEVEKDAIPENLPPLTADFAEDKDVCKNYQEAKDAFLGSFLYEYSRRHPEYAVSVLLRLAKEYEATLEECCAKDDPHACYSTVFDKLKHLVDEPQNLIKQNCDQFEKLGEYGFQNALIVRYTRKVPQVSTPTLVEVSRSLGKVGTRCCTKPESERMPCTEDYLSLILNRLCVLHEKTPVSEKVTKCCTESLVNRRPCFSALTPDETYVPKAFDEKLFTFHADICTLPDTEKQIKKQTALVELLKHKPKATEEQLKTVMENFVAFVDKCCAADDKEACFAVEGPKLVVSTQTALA

SMILES | Stern–Volmer quenching constant Ksv (EB–DNA adduct (ct-DNA)) | quenching rate constant kq (EB–DNA adduct (ct-DNA)) | Δ I/I0, EB–DNA fluorescence quenching (EB–DNA adduct (ct-DNA)) [%] | dynamic quenching constant Ksv [1] | quenching constant kq [1] | association binding constant KBSA [1] | n (number of binding sites for albumin) [1]
COc1cccc(CN=Cc2ccccc2[O][Cu][O]c2ccccc2C=NCc2cccc(OC)c2)c1 [Complex 4b, [Cu (Sal-3-MeOBn)2]] | 3.61 (±0.09) M^−1 × 10^3 | 1.56 (±0.04) M^−1 s^−1 × 10^11 | 40.1 | 6.39 (±0.06) M^−1 × 10^4 | 6.39 (±0.06) M^−1s^−1 × 10^12 | 5.37 (±0.25) M^−1 × 10^4 | 0.94
COc1ccc(CN=Cc2ccccc2[O-])cc1.COc1ccc(CN=Cc2ccccc2[O-])cc1.[Cl-].[Cl-].[Cu+2].[Cu+2] [Complex 4c, [Cu2 (Sal-4-MeOBn)2 Cl2]] | 3.82 (±0.12) M^−1 × 10^3 | 1.66 (±0.05) M^−1 s^−1 × 10^11 | 40.7 | 4.86 (±0.15) M^−1 × 10^4 | 4.86 (±0.15) M^−1s^−1 × 10^12 | 4.77 (±0.20) M^−1 × 10^4 | 1.16
COc1ccccc1CN=Cc1ccccc1[O-].COc1ccccc1CN=Cc1ccccc1[O-].[Cl-].[Cl-].[Cu+2].[Cu+2] [Complex 4a, [Cu2 (Sal-2-MeOBn)2 Cl2]] | 4.58 (±0.10) M^−1 × 10^3 | 1.98 (±0.05) M^−1 s^−1 × 10^11 | 45.7 | 7.16 (±0.03) M^−1 × 10^4 | 7.16 (±0.03) M^−1s^−1 × 10^12 | 6.66 (±0.30) M^−1 × 10^4 | 1.03
